This assay concerns the target T1, Beta-glucuronidase (Homo sapiens, UniProt P08236).
T1 sequence (P08236 whole entry): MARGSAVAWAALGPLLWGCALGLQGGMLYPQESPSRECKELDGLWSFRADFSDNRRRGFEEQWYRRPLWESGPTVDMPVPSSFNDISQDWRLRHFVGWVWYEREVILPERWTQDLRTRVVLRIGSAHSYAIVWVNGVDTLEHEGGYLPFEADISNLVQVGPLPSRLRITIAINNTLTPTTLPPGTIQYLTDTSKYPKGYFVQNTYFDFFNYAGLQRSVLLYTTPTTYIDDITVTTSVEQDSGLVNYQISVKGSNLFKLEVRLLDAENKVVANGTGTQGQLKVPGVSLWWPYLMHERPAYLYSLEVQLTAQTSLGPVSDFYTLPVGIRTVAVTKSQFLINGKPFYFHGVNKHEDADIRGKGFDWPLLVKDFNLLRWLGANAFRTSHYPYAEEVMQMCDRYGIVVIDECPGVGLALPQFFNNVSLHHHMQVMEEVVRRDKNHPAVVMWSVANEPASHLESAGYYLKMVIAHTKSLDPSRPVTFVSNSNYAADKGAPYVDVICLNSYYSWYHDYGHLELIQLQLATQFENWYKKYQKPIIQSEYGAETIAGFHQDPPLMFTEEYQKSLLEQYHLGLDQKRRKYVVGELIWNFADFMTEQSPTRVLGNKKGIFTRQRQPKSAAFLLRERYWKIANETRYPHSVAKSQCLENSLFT
The experiment in a line: β-Glucuronidase Assay.
Description: 250 μL was the volume of total reaction. Reaction mixture containing 5 μL of test compound solution, 185 μL of 0.1 M acetate buffer and 10 μL of enzyme solution were incubated for 30 min at 37 °C. […] To avoid precipitation compound concentration were decreased and the volume of reaction was high (200 μL). Precipitation probability was less thus addition of detergents was not needed.
Compound `COc1ccccc1-c1nnc(-c2ccc(C(=O)NNS(=O)(=O)c3ccccc3Br)cc2)o1` [2-Bromo-N'-(4-(5-(2-methoxyphenyl)-1,3,4-oxadiazol-2yl)benzoyl)benzenesulfonohydrazide (7)] had a half-maximal inhibitory concentration (IC50) of 38.5 µM.

In turn, `COc1ccccc1-c1nnc(-c2ccc(C(=O)NNS(=O)(=O)c3ccccc3F)cc2)o1` [2-Fluoro-N'-(4-(5-(2-methoxyphenyl)-1,3,4-oxadiazol-2yl)benzoyl)benzenesulfonohydrazide (4)] registered a 50% inhibitory concentration (IC50) of 10.3 µM.

In turn, `COc1ccccc1-c1nnc(-c2ccc(C(=O)NNS(=O)(=O)c3cccc(Br)c3)cc2)o1` [3-Bromo-N'-(4-(5-(2-methoxyphenyl)-1,3,4-oxadiazol-2yl)benzoyl)benzenesulfonohydrazide (9)] registered an IC50 of 58.2 µM.

Take `COc1ccccc1-c1nnc(-c2ccc(C(=O)NNS(=O)(=O)c3cccc(F)c3)cc2)o1` [3-Fluoro-N'-(4-(5-(2-methoxyphenyl)-1,3,4-oxadiazol-2yl)benzoyl)benzenesulfonohydrazide (5)]: 28.1 µM corresponded to half-maximal inhibition (IC50).

Turning to `COc1ccccc1-c1nnc(-c2ccc(C(=O)NNS(=O)(=O)c3ccc(C)cc3)cc2)o1` [4-methyl-N'-(4-(5-(2-methoxyphenyl)-1,3,4-oxadiazol-2-yl)benzoyl)-4-methylbenzenesulfonohydrazide (15)], the IC50 was 98.1 µM.

The compound `COc1ccccc1-c1nnc(-c2ccc(C(=O)NNS(=O)(=O)c3ccccc3C)cc2)o1` [N'-(4-(5-(2-methoxyphenyl)-1,3,4-oxadiazol-2-yl)benzoyl)-2-methylbenzenesulfonohydrazide (14)] yielded a half-maximal inhibitory concentration (IC50) of 24.3 µM.

Turning to `COc1ccccc1-c1nnc(-c2ccc(C(=O)NNS(=O)(=O)c3ccccc3[N+](=O)[O-])cc2)o1` [N'-(4-(5-(2-methoxyphenyl)-1,3,4-oxadiazol-2-yl)benzoyl)-2-nitrobenzenesulfonohydrazide (10)], the 50% inhibitory concentration (IC50) stood at 44.7 µM. This IC50 lies about 1.8-fold higher than the previous one.

As for `COc1ccccc1-c1nnc(-c2ccc(C(=O)NNS(=O)(=O)c3cccc([N+](=O)[O-])c3)cc2)o1` [N'-(4-(5-(2-methoxyphenyl)-1,3,4-oxadiazol-2-yl)benzoyl)-3-nitrobenzenesulfonohydrazide (12)], the 50% inhibitory concentration (IC50) worked out at 89.3 µM.
